Results on one cell line are retold here after the supplement of paper PMC10307832.

What all share (test): relative viability (nuclei count vs DMSO), 5 days (fraction); higher = more cells survive
Compound in the assay “Carboplatin + Alpelisib”: C1CC(C1)(C(=O)O)C(=O)O.[NH2-].[NH2-].[Pt+2] [Carboplatin] + Cc1nc(NC(=O)N2CCC[C@H]2C(N)=O)sc1-c1ccnc(C(C)(C)C(F)(F)F)c1 [Alpelisib] (partner 2 µM)
In a few lines: (§1)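 Lung cancer cell lines in 1536-well plates were dosed by pin tool the day after seeding, either with one drug alone or with a fixed anchor-drug dose plus five library-drug doses (not always all listed) in √10 steps. After 5 days, cells were fixed and their nuclei stained in one step (final 0.05% Triton X-100, 1% formaldehyde, 1 ug/ml Hoechst), then counted on 4× images. Relative viability is the nuclei count in treated wells divided by that in vehicle wells. Values are medians of duplicate plates.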

Compound in the assay “GSK126 + Trametinib”: CC[C@H](C)N1C=C(C2=C(C=C(C=C21)C3=CN=C(C=C3)N4CCNCC4)C(=O)NCC5=C(C=C(NC5=O)C)C)C [GSK126] + CC(=O)Nc1cccc(-n2c(=O)n(C3CC3)c(=O)c3c(Nc4ccc(I)cc4F)n(C)c(=O)c(C)c32)c1 [Trametinib] (partner 0.02 µM)
In a few lines:
as §1

Compound in the assay “Carboplatin + Olaparib”: C1CC(C1)(C(=O)O)C(=O)O.[NH2-].[NH2-].[Pt+2] [Carboplatin] + O=C(c1cc(Cc2n[nH]c(=O)c3ccccc23)ccc1F)N1CCN(C(=O)C2CC2)CC1 [Olaparib] (partner 8 µM)
The procedure, abridged:
as §1

Compound in the assay “GSK126 + Lapatinib”: CC[C@H](C)N1C=C(C2=C(C=C(C=C21)C3=CN=C(C=C3)N4CCNCC4)C(=O)NCC5=C(C=C(NC5=O)C)C)C [GSK126] + CS(=O)(=O)CCNCc1ccc(-c2ccc3ncnc(Nc4ccc(OCc5cccc(F)c5)c(Cl)c4)c3c2)o1 [Lapatinib] (partner 2 µM)
In a few lines: as §1

Turning to SW 1573, the relative viability stood at 0.827 with Carboplatin + Alpelisib (first compound 0.08 µM); 0.758 with Carboplatin + Alpelisib (first compound 0.253 µM); 0.767 with Carboplatin + Alpelisib (first compound 0.8 µM); 0.798 with Carboplatin + Alpelisib (first compound 2.53 µM); 0.693 with Carboplatin + Alpelisib (first compound 8 µM); 0.57 with GSK126 + Trametinib (first compound 0.08 µM). For the same cell line, the relative viability with GSK126 + Trametinib (first compound 0.253 µM) was determined as 0.618; with GSK126 + Trametinib (first compound 0.8 µM), 0.596; with GSK126 + Trametinib (first compound 2.53 µM), 0.587; in the assay with GSK126 + Trametinib (first compound 8 µM), 0.622; with Carboplatin + Olaparib (first compound 0.08 µM), 0.579; in the assay with Carboplatin + Olaparib (first compound 0.253 µM) it was 0.552. Besides, the relative viability with Carboplatin + Olaparib (first compound 0.8 µM) was determined as 0.477; with Carboplatin + Olaparib (first compound 2.53 µM), 0.493; with Carboplatin + Olaparib (first compound 8 µM), 0.234; with GSK126 + Lapatinib (first compound 0.08 µM), 1.09; with GSK126 + Lapatinib (first compound 0.253 µM), 1.07; with GSK126 + Lapatinib (first compound 0.8 µM) it was 0.989. The values for the relative viability with GSK126 + Lapatinib (first compound 2.53 µM) and in the assay with GSK126 + Lapatinib (first compound 8 µM) were 1.27 and 1.28, respectively.
